Measured values taken from PubChem BioAssay AID1259407 (Chemical Carcinogenesis Research Information System (CCRIS), 2018).
Active and inactive are the calls of the source. No rule for the calls is given here.

Test system: CCRIS mutagenicity, Ames/micronucleus/aberration tests
Test: CCRIS mutagenicity studies
[1] = Test System: AMES SALMONELLA TYPHIMURIUM, Strain/Indicator: TA98, Metabolic Activation: NONE, Method: PREINCUBATION
[2] = Test System: AMES SALMONELLA TYPHIMURIUM, Strain/Indicator: TA100, Metabolic Activation: NONE, Method: PREINCUBATION
[3] = Test System: AMES SALMONELLA TYPHIMURIUM, Strain/Indicator: TA1537, Metabolic Activation: NONE, Method: STANDARD PLATE
[4] = Test System: AMES SALMONELLA TYPHIMURIUM, Strain/Indicator: TA1535, Metabolic Activation: NONE, Method: STANDARD PLATE
[5] = Test System: AMES SALMONELLA TYPHIMURIUM, Strain/Indicator: TA100, Metabolic Activation: NONE, Method: STANDARD PLATE
[6] = Test System: AMES SALMONELLA TYPHIMURIUM, Strain/Indicator: TA98, Metabolic Activation: NONE, Method: STANDARD PLATE
[7] = Test System: AMES SALMONELLA TYPHIMURIUM, Strain/Indicator: TA100, Metabolic Activation: RAT, LIVER, S-9, AROCLOR 1254, Method: STANDARD PLATE
[8] = Test System: AMES SALMONELLA TYPHIMURIUM, Strain/Indicator: TA1535, Metabolic Activation: RAT, LIVER, S-9, AROCLOR 1254, Method: STANDARD PLATE
[9] = Test System: AMES SALMONELLA TYPHIMURIUM, Strain/Indicator: TA1537, Metabolic Activation: RAT, LIVER, S-9, AROCLOR 1254, Method: STANDARD PLATE

CC[C@H]1OC(=O)[C@H](C)[C@@H](O[C@H]2C[C@@](C)(OC)[C@@H](O)[C@H](C)O2)[C@H](C)[C@@H](O[C@@H]2O[C@H](C)C[C@H](N(C)C)[C@H]2O)[C@](C)(O)C[C@@H](C)/C(=N\OCOCCOC)[C@H](C)[C@@H](O)[C@]1(C)O
mutagenic call [1]: inactive; negative | mutagenic call (Test System: AMES SALMONELLA TYPHIMURIUM, Strain/Indicator: TA98, Metabolic Activation: RAT, LIVER, S-9, PHENOBARBITAL, Method: PREINCUBATION): inactive; negative | mutagenic call [2]: inactive; negative | mutagenic call (Test System: AMES SALMONELLA TYPHIMURIUM, Strain/Indicator: TA100, Metabolic Activation: RAT, LIVER, S-9, PHENOBARBITAL, Method: PREINCUBATION): inactive; negative | mutagenic call (Test System: AMES SALMONELLA TYPHIMURIUM, Strain/Indicator: TA1535, Metabolic Activation: NONE, Method: PREINCUBATION): inactive; negative | mutagenic call (Test System: AMES SALMONELLA TYPHIMURIUM, Strain/Indicator: TA1535, Metabolic Activation: RAT, LIVER, S-9, PHENOBARBITAL, Method: PREINCUBATION): inactive; negative | mutagenic call (Test System: AMES SALMONELLA TYPHIMURIUM, Strain/Indicator: TA1537, Metabolic Activation: NONE, Method: PREINCUBATION): inactive; negative | mutagenic call (Test System: AMES SALMONELLA TYPHIMURIUM, Strain/Indicator: TA1537, Metabolic Activation: RAT, LIVER, S-9, PHENOBARBITAL, Method: PREINCUBATION): inactive; negative | mutagenic call (Test System: E. COLI, Strain/Indicator: WP2 UVRA, Metabolic Activation: NONE, Method: PREINCUBATION): inactive; negative | mutagenic call (Test System: E. COLI, Strain/Indicator: WP2 UVRA, Metabolic Activation: RAT, LIVER, S-9, PHENOBARBITAL, Method: PREINCUBATION): inactive; negative

COc1ccc2c(cc3c4c(cc5c(c42)OCO5)C(=O)C(=O)N3C)c1OC
mutagenic call (Test System: AMES SALMONELLA TYPHIMURIUM, Strain/Indicator: TA98, Metabolic Activation: RAT, LIVER, S-9, PHENOBARBITAL AND BETA-NAPHTHOFLAVONE, Method: PREINCUBATION): active; positive | mutagenic call (Test System: AMES SALMONELLA TYPHIMURIUM, Strain/Indicator: TA100, Metabolic Activation: RAT, LIVER, S-9, PHENOBARBITAL AND BETA-NAPHTHOFLAVONE, Method: PREINCUBATION): active; positive

COc1cc(NS(C)(=O)=O)ccc1Nc1c2ccc(N=[N+]=[N-])cc2nc2c(C)cccc12
mutagenic call [3]: active; positive

C/C=C1\CC(C)C(C)(OC(C)=O)C(=O)OCC2=C3C(CC[N+]3(C)C=C2)OC1=O (stereo not drawn)
mutagenic call (Test System: AMES SALMONELLA TYPHIMURIUM, Strain/Indicator: TA100, Metabolic Activation: HAMSTER, LIVER, S-9, PCB, Method: PREINCUBATION): active; positive | mutagenic call (Test System: AMES SALMONELLA TYPHIMURIUM, Strain/Indicator: TA100, Metabolic Activation: RAT, LIVER, S-9, PCB, Method: PREINCUBATION): active; positive

Cc1ccc(C=O)cc1
mutagenic call [1]: inactive; negative | mutagenic call (Test System: AMES SALMONELLA TYPHIMURIUM, Strain/Indicator: TA98, Metabolic Activation: RAT, LIVER, S-9, AROCLOR 1254, Method: PREINCUBATION): inactive; negative | mutagenic call [2]: inactive; negative | mutagenic call (Test System: AMES SALMONELLA TYPHIMURIUM, Strain/Indicator: TA100, Metabolic Activation: RAT, LIVER, S-9, AROCLOR 1254, Method: PREINCUBATION): inactive; negative | mutagenic call (Test System: AMES SALMONELLA TYPHIMURIUM, Strain/Indicator: TA102, Metabolic Activation: NONE, Method: PREINCUBATION): inactive; negative | mutagenic call (Test System: AMES SALMONELLA TYPHIMURIUM, Strain/Indicator: TA102, Metabolic Activation: RAT, LIVER, S-9, AROCLOR 1254, Method: PREINCUBATION): inactive; negative

CN(Cc1cccc(C#N)c1)N=O
mutagenic call (Test System: AMES SALMONELLA TYPHIMURIUM, Strain/Indicator: TA1535, Metabolic Activation: HAMSTER, LIVER, S-9, AROCLOR 1254, Method: STANDARD PLATE): active; positive | mutagenic call [4]: active; positive

Clc1ccccc1-c1ccccc1
mutagenic call (End Point: In vivo mutagenicity, Test System: Liver, Species: Rat, Strain/Sex: Big Blue/Male, Route: Intraperitoneal): active; positive; statistically significant increase of mutant frequency of liver laci g

COc1ccc2c(ccc3oc([N+](=O)[O-])cc32)c1
mutagenic call (Test System: AMES SALMONELLA TYPHIMURIUM, Strain/Indicator: TA100(NR), Metabolic Activation: NONE, Method: STANDARD PLATE): active; positive | mutagenic call [5]: active; positive

CC1CCC(C(C)C)C(=O)C1 (stereo not drawn)
mutagenic call (Test System: AMES SALMONELLA TYPHIMURIUM, Strain/Indicator: TA97, Metabolic Activation: NONE, Method: STANDARD PLATE): active; positive | mutagenic call [6]: inactive; negative | mutagenic call (Test System: AMES SALMONELLA TYPHIMURIUM, Strain/Indicator: TA98, Metabolic Activation: RAT, LIVER, S-9, AROCLOR 1254, Method: STANDARD PLATE): inactive; negative | mutagenic call [5]: inactive; negative | mutagenic call [7]: inactive; negative | mutagenic call [4]: inactive; negative | mutagenic call [8]: inactive; negative | mutagenic call [3]: inactive; negative | mutagenic call [9]: inactive; negative

COC(=O)[C@@H]1O[C@@H]1c1ccccc1
mutagenic call [6]: inactive; negative | mutagenic call [5]: active; positive | mutagenic call [7]: inactive; negative | mutagenic call [8]: inactive; negative | mutagenic call [9]: inactive; negative | mutagenic call (Test System: AMES SALMONELLA TYPHIMURIUM, Strain/Indicator: TA1538, Metabolic Activation: RAT, LIVER, S-9, AROCLOR 1254, Method: STANDARD PLATE): inactive; negative

Cn1c(N=[N+]=[N-])nc2ccc3ncccc3c21
mutagenic call (Test System: AMES SALMONELLA TYPHIMURIUM, Strain/Indicator: TA98(1,8-DNP6), Metabolic Activation: NONE, Method: STANDARD PLATE): active; positive | mutagenic call [6]: active; positive

CCOP(=O)(OCC)SCCSCC (tested in a mixture with another compound)
mutagenic call (Test System: E. COLI, Strain/Indicator: WP2 UVRA, Metabolic Activation: NONE, Method: STANDARD PLATE): active; positive | mutagenic call (Test System: E. COLI, Strain/Indicator: WP2 UVRA, Metabolic Activation: RAT, LIVER, S-9, AROCLOR 1254, Method: STANDARD PLATE): active; positive | mutagenic call (Test System: UDS HUMAN FIBROBLASTS, Strain/Indicator: THY INCORP (NON-S-PHASE), Metabolic Activation: NONE, Method: LIQUID SCINTILLATION COUNTING): active; positive

CCCCNC(=O)NS(=O)(=O)c1ccc(C)cc1
mutagenic call (End Point: IN VITRO CHROMOSOMAL ABERRATIONS, Test System: CHO-LB CELLS, Metabolic Activation: NONE): inactive; negative | mutagenic call (End Point: IN VITRO CHROMOSOMAL ABERRATIONS, Test System: CHO-LB CELLS, Metabolic Activation: RAT, LIVER, S-9, AROCLOR 1254): inactive; negative
